In the NIST ThermoML archive (doi:10.1021/je0302295) one finds refractive index, mass density and activity coefficient data, which are given here for 8 molecules.

Data set [1] can be described thus: refractive index (Na D-line) (dimensionless). The settings on record: 293.15 K; 101.33 kPa; Liquid; Standard Abbe refractometry.
The conditions of data set [2]: 293.15 K, 101.33 kPa, Liquid.
Data set [3] can be described thus: activity coefficient (dimensionless); of the first substance listed, at infinite dilution; xn = mol fraction of the nth substance listed. As to conditions: Liquid, Static method, x1 = 0.

± gives the expanded uncertainty stated by the source.

Regarding `CCCCO` [butan-1-ol], in data set [1], the refractive index came out at 1.3992 ± 0.0007. In addition, in data set [2], the mass density was determined as 809.68 ± 0.29 kg/m3.
Consider `CCCCO` [butan-1-ol] + CCCCCCC, for which the activity coefficient turned out to be 31.3 ± 3 in data set [3] (303.15 K); 24.5 ± 1 in data set [3] (313.15 K); 19.3 ± 1 in data set [3] (323.15 K); 14.6 ± 0.8 in data set [3] (333.15 K); 11.6 ± 0.4 in data set [3] (343.15 K).
The like results for `CCCCO` [butan-1-ol] + CCCCCCCC were, in that order, 32.1 ± 1.6, 23.9 ± 0.8, 18.4 ± 0.4, 14.5 ± 0.4 and 11.2 ± 0.8.
As for `CCCCCCC` [heptane], in data set [1], the refractive index is listed as 1.3876 ± 0.0007. Besides, the mass density in data set [2] (Vibrating tube method) is reported as 683.79 ± 0.21 kg/m3.
`CCCCCCCC` [octane]: the refractive index in data set [1] turned out to be 1.3973 ± 0.0007. In data set [2] (Vibrating tube method), the mass density came out at 702.76 ± 0.2 kg/m3.
On to `CCCO` [propan-1-ol], for which, in data set [1], the refractive index amounted to 1.3855 ± 0.0007. Also, the mass density in data set [2] came to 803.55 ± 0.29 kg/m3.
Regarding `CCCO` [propan-1-ol] + CCCCCCC, the activity coefficient is 36.2 ± 1.1 in data set [3] (303.15 K); 27.2 ± 0.7 in data set [3] (313.15 K); 21.2 ± 1 in data set [3] (323.15 K); 15.8 ± 0.4 in data set [3] (333.15 K); 12.5 ± 0.2 in data set [3] (343.15 K).
Take `CCCO` [propan-1-ol] + CCCCCCCC: the activity coefficient in data set [3] (303.15 K) was found to be 34.2 ± 1.8; in data set [3] (313.15 K) it was 26.5 ± 1.4; in data set [3] (323.15 K), 20.5 ± 0.5; in data set [3] (333.15 K), 16.2 ± 0.3; in data set [3] (343.15 K), 12.9 ± 0.2.
